Source: patent publication US20230365624A1, “NOVEL ANGIOTENSIN I-CONVERTING ENZYME (ACE) INHIBITORY PEPTIDES” (Thai Union Group Public Company Limited, priority 2020, published 2023)
Marks after values point to notes of the source that are not given here. No end group written: not given here.

Experiments:
[1] = target: angiotensin I-converting enzyme (ACE) (Homo sapiens, UniProt P12821); test: ACE inhibitory activity assay (HHL substrate, hippuric acid absorbance at 228 nm); format: biochemical; conditions: for inhibition at 1000 µg/mL: synthetic peptides at 1 mg/ml
Description: ACE inhibitory activity assay was carried out according to the methods of Cushman and Cheung (1971) and Wu et al. (2002) with some modifications. A reaction mixture containing 50 µl of hydrolysate or peptides, 150 µl of 8.3 mM Hippuryl-L-histidyl-L-leucine (HHL), and 50 µl of ACE (25 mU/ml) was incubated at 37° C. for 1 h. Subsequently, 250 µl of 1 M HCl was added to terminate the reaction. The released hippuric acid (HA) was extracted by adding 2.5 ml ethyl acetate, and the mixture was mixed with a vortex for 1 min and left at room temperature for 1 h. Then, 2 ml of the upper layer was transferred into beaker and dried at 80° C. to remove ethyl acetate. Finally, 1 ml of deionized water was added to dissolve the HA. Absorbance was measured at 228 nm. The percentage of ACE inhibition was calculated as follows: […]
where A is the absorbance at 228 nm of a reaction containing ACE without hydrolysate; B is the absorbance at 228 nm of a reaction containing ACE previously inactivated by adding HCl in the absence of hydrolysate; C is the absorbance at 228 nm of a reaction in the presence of ACE and hydrolysate; and D is the absorbance at 228 nm of a reaction containing ACE previously inactivated by adding HCl in the presence of hydrolysate. The IC50 was defined as the concentration of inhibitor required to inhibit 50% of the ACE activity. Specific inhibitory activity was calculated as ACE inhibition (%) divided by total peptide content (mg).

[2] = target: ACE (Homo sapiens, UniProt P12821); conditions: Wu et al. (2008); Balti et al. (2010); read-out: IC50 (ACE inhibition); cited from earlier work
[3] = system: GI enzymes (pepsin and pancreatin); test: In vitro gastrointestinal (GI) digestion of synthetic peptides, with ACE inhibitory activity and α-amino group content before and after; format: in vitro ADME; conditions: pepsin pH 2.0, 37° C., 1 h, then pancreatin pH 7.5, 37° C., 2 h (FIG. 6)
Description: It is necessary for ACE inhibitory peptides to retain its activity in GI tract so that it can be absorbed into the bloodstream, where the peptide inhibitors can show their hypotensive effect. In vitro gastrointestinal digestion provides an easy process to imitate antihypertensive activity of peptides under oral administration. […] In vitro GI digestion was simulated according to the method of Zhu et al. (2008) with some modifications. One milligram of each sample was dissolved in 0.5 ml of 0.1 M KCl-HCl, and the pH was adjusted to 2.0 with 6 M HCl. Pepsin (1% enzyme/substrate, w/w) was added, and the mixture was incubated in a shaking water bath at 37° C. for 1 h, and the pH was then adjusted to pH 7.5. […] ACE inhibitory activity and α-amino groups content of the peptides before and after in vitro GI digestion were measured. […]
ACE inhibitory activity assay was carried out according to the methods of Cushman and Cheung (1971) and Wu et al. (2002) with some modifications. […] Absorbance was measured at 228 nm. The percentage of ACE inhibition was calculated as follows: […]
Content of α-amino groups was performed according to Adler-Nissen (1979). […] The mixture was left at room temperature for 30 min before an absorbance at 420 nm was monitored. […] The content of α-amino groups was expressed as leucine equivalents.

[4] = synthesized in silico GI digestion products of VR9

angiotensin I-converting enzyme (ACE), sequence (P12821 30-1306, species assumed): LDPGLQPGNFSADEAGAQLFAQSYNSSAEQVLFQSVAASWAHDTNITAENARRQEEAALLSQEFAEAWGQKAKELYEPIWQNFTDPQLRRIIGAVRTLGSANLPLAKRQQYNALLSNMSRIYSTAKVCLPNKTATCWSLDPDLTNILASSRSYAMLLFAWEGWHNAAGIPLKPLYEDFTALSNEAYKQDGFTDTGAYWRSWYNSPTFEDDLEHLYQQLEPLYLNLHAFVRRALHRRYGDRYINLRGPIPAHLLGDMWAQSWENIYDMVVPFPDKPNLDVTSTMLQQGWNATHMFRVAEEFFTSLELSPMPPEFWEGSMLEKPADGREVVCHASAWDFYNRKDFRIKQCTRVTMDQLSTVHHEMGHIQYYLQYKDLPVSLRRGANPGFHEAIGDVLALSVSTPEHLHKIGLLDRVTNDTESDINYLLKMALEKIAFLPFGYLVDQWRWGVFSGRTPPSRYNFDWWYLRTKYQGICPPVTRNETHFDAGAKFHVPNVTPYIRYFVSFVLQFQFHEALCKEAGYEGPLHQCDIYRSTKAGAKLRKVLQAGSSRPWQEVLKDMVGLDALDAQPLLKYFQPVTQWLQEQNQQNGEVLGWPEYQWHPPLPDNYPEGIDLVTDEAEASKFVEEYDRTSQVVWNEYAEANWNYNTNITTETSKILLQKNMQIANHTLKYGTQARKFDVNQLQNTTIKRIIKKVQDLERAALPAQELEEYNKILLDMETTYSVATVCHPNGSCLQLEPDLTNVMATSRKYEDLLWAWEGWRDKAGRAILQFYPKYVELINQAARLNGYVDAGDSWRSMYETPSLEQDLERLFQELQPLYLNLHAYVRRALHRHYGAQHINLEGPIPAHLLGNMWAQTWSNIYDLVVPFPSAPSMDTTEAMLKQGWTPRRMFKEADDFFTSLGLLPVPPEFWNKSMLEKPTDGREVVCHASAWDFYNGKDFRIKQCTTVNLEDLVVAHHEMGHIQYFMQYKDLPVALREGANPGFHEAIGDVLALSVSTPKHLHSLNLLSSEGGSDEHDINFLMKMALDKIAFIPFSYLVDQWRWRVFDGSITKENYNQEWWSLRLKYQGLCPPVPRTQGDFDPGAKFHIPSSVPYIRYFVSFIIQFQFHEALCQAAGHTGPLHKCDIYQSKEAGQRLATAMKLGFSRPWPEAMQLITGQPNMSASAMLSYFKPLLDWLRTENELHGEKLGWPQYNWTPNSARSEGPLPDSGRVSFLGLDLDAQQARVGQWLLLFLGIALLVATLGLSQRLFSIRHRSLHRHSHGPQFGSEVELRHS
ACE, sequence (P12821 30-1306, species assumed): as above

Substance	IC50 [2] [nM]	IC50 [1] [nM]	inhibition at 1000 µg/mL [1] [%]	further results
INCR	–	–	–	ACE inhibitory activity (%) At 1 µg/ml ([1]; 1 µg/ml, synthesized in silico GI digestion products of VR9): 29.10 ± 1.06^c %; ACE inhibitory activity (%) At 1 mg/ml [1, 4]: 100.79 ± 0.71^c %
MAW	16300	–	–	–
NLLPHR [NLLPHR]	–	1240	94.9 ± 0.97	Decrease of ACE inhibitory activity after GI digestion [3]: approximately 30%
VIIF	8700	–	–	–
VIY [in silico GI digestion product of VR9]	–	–	–	ACE inhibitory activity (%) At 1 mg/ml [1, 4]: 18.51 ± 1.12^a %
VIYSRINCR [VIYSRINCR]	–	240	97.02 ± 0.46	Decrease of ACE inhibitory activity after GI digestion [3]: ~14%
VSVVQYSR [VSVVQYSR]	–	950	94.15 ± 0.2	–
VYAP	6100	–	–	–
